# Laboratory results from BindingDB's records for doi:10.1016/s0960-894x(99)00014-1 (Zeria Pharmaceutical, 1999).
# pIC50: −log10 of the molar value.
# Test: In vitro thromboxane A2 antagonistic activity on aggregation of rabbit platelets induced by U-46,619 (4 uM)
row,Structure (SMILES),pIC50
1,O=C(O)Cc1ccc2c(c1)CC(CNS(=O)(=O)c1cccc3ccccc13)C2 (stereo unspecified) [Sodium; {2-[(naphthalene-1-sulfonylamino)-methyl]-indan-5-yl}-acetate],4.32
2,O=C(O)c1ccc2c(c1)CC(CCNS(=O)(=O)c1ccc(Cl)cc1)C2 (stereo unspecified) [Sodium; 2-[2-(4-chloro-benzenesulfonylamino)-ethyl]-indan-5-carboxylate],5.11
3,O=C(O)Cc1ccc2c(c1)CC(CNS(=O)(=O)c1ccc(Cl)cc1)C2 (stereo unspecified) [Sodium; {2-[(4-chloro-benzenesulfonylamino)-methyl]-indan-5-yl}-acetate],6.44
4,O=C(O)Cc1ccc2c(c1)CC(CNS(=O)(=O)c1ccccc1)C2 (stereo unspecified) [Sodium; [2-(benzenesulfonylamino-methyl)-indan-5-yl]-acetate],5.99
5,O=C(O)Cc1ccc2c(c1)CC(CCCNS(=O)(=O)c1ccc(Cl)cc1)C2 (stereo unspecified) [Sodium; {2-[3-(4-chloro-benzenesulfonylamino)-propyl]-indan-5-yl}-acetate],4.14
6,O=C(O)CCc1ccc2c(c1)CC(CNS(=O)(=O)c1ccc(Cl)cc1)C2 (stereo unspecified) [Sodium; 3-{2-[(4-chloro-benzenesulfonylamino)-methyl]-indan-5-yl}-propionate],6.80
7,O=C(O)c1ccc2c(c1)CC(CCCNS(=O)(=O)c1ccc(Cl)cc1)C2 (stereo unspecified) [Sodium; 2-[3-(4-chloro-benzenesulfonylamino)-propyl]-indan-5-carboxylate],5.18
8,O=C(O)Cc1ccc2c(c1)CC(CNS(=O)(=O)c1ccc3ccccc3c1)C2 (stereo unspecified) [Sodium; {2-[(naphthalene-2-sulfonylamino)-methyl]-indan-5-yl}-acetate],6.02
9,O=C(O)Cc1ccc2c(c1)CC(CNS(=O)(=O)C1CCCCC1)C2 (stereo unspecified) [Sodium; [2-(cyclohexanesulfonylamino-methyl)-indan-5-yl]-acetate],4.75
10,O=C(O)Cc1ccc2c(c1)CC(CNS(=O)(=O)Cc1ccccc1)C2 (stereo unspecified) [Sodium; [2-(phenylmethanesulfonylamino-methyl)-indan-5-yl]-acetate],< 4.00
11,O=C(O)CCCCc1ccc2c(c1)CC(CNS(=O)(=O)c1ccc(Cl)cc1)C2 (stereo unspecified) [Sodium; 5-{2-[(4-chloro-benzenesulfonylamino)-methyl]-indan-5-yl}-pentanoate],5.54
12,O=C(O)Cc1ccc2c(c1)CC(CNS(=O)(=O)c1cccs1)C2 (stereo unspecified) [Sodium; {2-[(thiophene-2-sulfonylamino)-methyl]-indan-5-yl}-acetate],5.55
13,O=C(O)c1ccc2c(c1)CC(CCCCNS(=O)(=O)c1ccc(Cl)cc1)C2 (stereo unspecified) [Sodium; 2-[4-(4-chloro-benzenesulfonylamino)-butyl]-indan-5-carboxylate],4.00
14,O=C(O)Cc1ccc2c(c1)CC(CCNS(=O)(=O)c1ccc(Cl)cc1)C2 (stereo unspecified) [Sodium; {2-[2-(4-chloro-benzenesulfonylamino)-ethyl]-indan-5-yl}-acetate],5.83
15,O=C(O)Cc1ccc2c(c1)CC(CCCCNS(=O)(=O)c1ccc(Cl)cc1)C2 (stereo unspecified) [Sodium; {2-[4-(4-chloro-benzenesulfonylamino)-butyl]-indan-5-yl}-acetate],< 4.00
16,O=C(O)Cc1ccc2c(c1)CC(NS(=O)(=O)c1ccc(Cl)cc1)C2 (stereo unspecified) [Sodium; [2-(4-chloro-benzenesulfonylamino)-indan-5-yl]-acetate],6.44
17,CCCCCS(=O)(=O)NCC1Cc2ccc(CC(=O)O)cc2C1 (stereo unspecified) [Sodium; {2-[(pentane-1-sulfonylamino)-methyl]-indan-5-yl}-acetate],4.11
18,"O=C(O)Cc1ccc2c(c1)CC(CNS(=O)(=O)c1ccc(Cl)cc1)O2 (stereo unspecified) [Sodium; {2-[(4-chloro-benzenesulfonylamino)-methyl]-2,3-dihydro-benzofuran-5-yl}-acetate]",6.49
19,O=C(O)c1ccc2c(c1)CC(CNS(=O)(=O)c1ccc(Cl)cc1)C2 (stereo unspecified) [Sodium; 2-[(4-chloro-benzenesulfonylamino)-methyl]-indan-5-carboxylate],5.88
20,O=C(O)Cc1ccc2c(c1)CC(CNS(=O)(=O)c1cccnc1)C2 (stereo unspecified) [Sodium; {2-[(pyridine-3-sulfonylamino)-methyl]-indan-5-yl}-acetate],< 4.00
21,O=C(O)CCCc1ccc2c(c1)CC(CNS(=O)(=O)c1ccc(Cl)cc1)C2 (stereo unspecified) [Sodium; 4-{2-[(4-chloro-benzenesulfonylamino)-methyl]-indan-5-yl}-butyrate],5.87
